Key:
Sprague-Dawley rats [1] = assay: Formalin-induced pain test (flinching) after intrathecal administration; assay type: in vivo, rat; settings: for ED50 (dose which decreases the formalin response of the control by 50%), Phase 1 / ED50 (dose which decreases the formalin response of the control by 50%), Phase 2: drug alone, intrathecal 10 min before formalin injection, rat; for ED50 (dose which decreases the formalin response of the control by 50%), Phase 1: Phase 1 (0 to 9 min); for ED50 (dose which decreases the formalin response of the control by 50%), Phase 2: Phase 2 (10 to 60 min); for Ratio of ED50 in Phase 1 to ED50 in Phase 2: formalin experiment; for Ratio of ED50 in Phase 1 to ED50 in Phase 2 / Flinching reactions, dose-response (percentage of control) / Number of flinches over time at the highest dose: intrathecal; for Flinching reactions, dose-response (percentage of control): Phase 1 and Phase 2, FIGS. 2A and 2B; for Number of flinches over time at the highest dose: FIGS. 1A and 1B
Description: (§1) After permission for all the procedures in the experimental protocol was obtained by The Institutional Animal Care and Use Committee of Chonnam National University, experiments were performed. Adult male Sprague-Dawley rats (250 to 300 g) were used as the experimental subject, four rats per group were housed and kept in a well-controlled vivarium, maintained at 22° C. for 12 hours, with an alternating light/dark cycle and were given food and water ad libitum. Rats were under sevoflurance anesthesia in order to be implanted with an intrathecal catheter, and placed in a stereotaxic apparatus A polyethylene catheter lower end portion was intrathecally inserted so as to be positioned within the lumbar extension portion through an incision in the cisternal membrane. Then, the catheter upper end portion was secured at the skull. After the catheter implantation, rats were again housed in individual cages. After the intrathecal catheter implantation, rats showing movement disorder were excluded in the experiment, and killed by administering an overdose of sevoflurane. Rats showing normal responses were again housed in individual cages in the vivarium, and given a recovery time of 5 days.
A formalin experiment was used as a pain evoking experimental tool. 50 μL of a 5% formalin solution was injected subcutaneously into the subcutaneous tissue of a hind paw of the rat. […] The number of flinches was counted for 1 min periods at 1 and 5 min and at 5 min intervals from 10 to 60 min after the injection. […] Therefore, the phase from 0 to 9 minutes after the injection of formalin was defined as Phase 1, and the phase from 10 to 60 minutes was defined as Phase 2. After the behavior study, rats were administered an overdose of sevoflurane, and then killed.
The effect of the experimental drug for the formalin injection was tested for 5 days after the intrathecal catheter implantation. After acclimatization for 15 to 20 min in a restraint cylinder (10×10×30 cm), the rats were allocated to receive one of the experimental drugs, and tested only once. The same volume of the vehicle (saline, 0.1 N NaOH or DMSO) was administered to a control. The total number of rats used in the nociceptive behavioral study was 139 with 6 to 8 rats per group. The investigators were blind as to the administration amount and type of experimental drug used in each rat.
Saline, 10, 30, and 100 μg of P7C3 (Tocris Cookson Ltd., Bristol, UK), and 1, 3, 10, and 30 μg of morphine sulfate (Sigma-Aldrich, St. Louis, Mo., USA) were intrathecally administered 10 minutes before formalin injection, and analgesic effects (flinching number analysis) were investigated according to the aforementioned pain experiment. The drug was intrathecally administered by using a manually gear operated syringe pump. All the drugs were administered in an amount of 10 μl, and an additional 10 μl of standard saline was administered in order to wash out the catheter.
The dose (ED50), which decreases the formalin response of the control for P7C3 and morphine by 50%, was determined at Phase 1 and the Phase 2, respectively.
And then, ED50 of the mixed drug was obtained. The experiment was performed individually in Phase 1 and Phase 2.
Data obtained in Examples 1 and 2 were expressed as means±SEM. The time response data are presented as the number of flinches. The dose-response data are presented as a percentage of the control. Percentage of the control=(total number of flinches in drug administration group in Phase 1[2]/number of flinches of control in Phase 1[2])×100

Sprague-Dawley rats [2] = assay: Evaluation of response of intrathecal administration of P7C3 (motor function and pinna/corneal reflexes); assay type: in vivo, rat; settings: highest dose (100 μg) intrathecal, 5 rats
Description: as §1, with “After the intrathecal catheter implantation, rats showing movement disorder were excluded in the experiment, and killed by administering an overdose of sevoflurane. Rats showing normal responses were again housed in individual cages in the vivarium, and given a recovery time of 5 days.” left out
In order to detect undesirable behaviors induced by P7C3, the highest dose (100 μg) was intrathecally administered to 5 rats of each individual group. Motor function was assessed by the placing-stepping reflex and the righting reflex. […] The latter was evaluated by placing the rat horizontally with the rat's back on the table. […] The central nervous system was evaluated through pinna and corneal reflexes. […]

SMILES	ED50 (dose which decreases the formalin response of the control by 50%), Phase 1 (Sprague-Dawley rats [1]) [µg]	ED50 (dose which decreases the formalin response of the control by 50%), Phase 2 (Sprague-Dawley rats [1]) [µg]	Ratio of ED50 in Phase 1 to ED50 in Phase 2 (Sprague-Dawley rats [1])	Flinching reactions, dose-response (percentage of control) (Sprague-Dawley rats [1])	Number of flinches over time at the highest dose (Sprague-Dawley rats [1])	Normality of behavior: placing-stepping, righting, pinna and corneal reflexes (Sprague-Dawley rats [2])
OC(CNc1ccccc1)Cn1c2ccc(Br)cc2c2cc(Br)ccc21 (centres unmarked) [P7C3, 1-(3,6-dibromo-9H-carbazol-9-yl)-3-(phenylamino)propan-2-ol]	31.8	31	similar	suppressed flinching reactions dose-dependently	exhibited potential analgesic effects throughout the entire observation period	all normal (present)
CN1CC[C@]23c4c5ccc(O)c4O[C@H]2[C@@H](O)C=C[C@H]3[C@H]1C5 [Morphine, (5α,6α)-7,8-didehydro-4,5-epoxy-17-methylmorphinan-3,6-diol, reference compound]	8.8	3.9	two times larger	suppressed flinching reactions dose-dependently	exhibited potential analgesic effects throughout the entire observation period	

Source: patent US9545400B2, “Analgesic composition including opioid analgesic and P7C3” (CHONNAM NATIONAL UNIVERSITY HOSPITAL, priority 2014, dated 2017)
